This is an account of results in article PMC3305904, “N^β-methylation changes the recognition pattern of aza-β^3-amino acid containing peptidomimetic substrates by protein kinase A” (Organic and Medicinal Chemistry Letters, 2011).

The target in experiment [1] is T1, PKA catalytic subunit (Homo sapiens, UniProt P17612). The following applies: parent peptide, cited from earlier work. On the procedure: Table 1 Phosphorylation of N^β-methylated peptidomimetic substrates by PKA catalytic subunit at ATP concentration 100 μM, 30°C, 50 mM TRIS/HCl, pH 7 | column: Km (μM); 10^2 kcat (μmole mg^-1 s^-1); 10^2 kII (L mg^-1 s^-1)
For experiment [2], the target named is T1, PKA catalytic subunit. As to the kind of experiment: PKA-catalyzed phosphorylation of peptide/peptidomimetic substrates, [γ-32P]ATP, phosphocellulose paper binding. It is filed as biochemical. The following applies: ATP 100 μM, 30°C, 50 mM TRIS/HCl, pH 7; for 10^2 kcat: Michaelis-Menten fit, value is kcat multiplied by 10^2; for 10^2 kII (second order rate constant): from the initial linear part of the Michaelis-Menten plot, value is kII multiplied by 10^2; for Km: substrate phosphorylation by PKA catalytic subunit, Michaelis-Menten fit of initial velocities, substrate concentration varied. On the procedure:
The phosphorylation reactions followed the classical Michaelis-Menten rate equation and therefore all substrates were characterized by the Km and kcat values, which correspond to the constant ATP concentration of 0.1 mM. The initial linear part of the Mihaelis-Menten plot was used for the calculation of the second order rate constants kII as described in [10] and these values are also listed in Table 1. Agreement between the parameters kII and values of the ratio of kcat/Km for substrates confirms the applicability of the Michelis-Menten rate equation for the description of the kinetic data.
The method of kinetic measurements was described in our previous article and was based on utilizing the radioactive ATP with [^32P]phosphate in γ-position. The phosphorylated substrates were bound onto Whatman phosphocellulose paper and the paper-bound radioactivity was counted. Linear plots between filter-bound radioactivity and time were used for calculating the initial velocity values of the phosphorylation reaction, which were thereafter processed by the classical Michaelis-Menten rate equation. Kinetic experiments were made at constant ATP concentration (100 μM) and the Km and kcat values were calculated for peptidomimetic substrates, concentrations of which were varied in the reaction mixture.

Where two headings read alike, the source gives them in different places.

The Km is the concentration of substrate that gives half-maximal velocity. As for RRASVA, at PKA catalytic subunit [1] (phosphorylation by PKA), the Km was 11.1 ± 3.5 µM. In addition, on PKA catalytic subunit [1] (value is kII multiplied by 10^2), the “10^2 kII (second order rate constant)” value was 3.2 ± 0.1 L mg^-1 s^-1. The “10^2 kcat” value on PKA catalytic subunit [1] (value is kcat multiplied by 10^2) is given as 36 ± 3 μmole mg^-1 s^-1.
“RRASVA [I, RRASVA analog with one N^β-Me-aza-β^3-amino acid residue; likely the N-terminal Arg]”: on PKA catalytic subunit [2], the “10^2 kcat” value was found to be 24.4 ± 1.5 μmole mg^-1 s^-1, the “10^2 kII (second order rate constant)” value is 0.098 ± 0.010 L mg^-1 s^-1 and the Km amounted to 209 ± 24 µM.
The matching figures for “RRASVA [II, RRASVA analog with one N^β-Me-aza-β^3-amino acid residue; likely the second Arg]”: 11.9 ± 1.0 μmole mg^-1 s^-1, 0.11 ± 0.07 L mg^-1 s^-1 and 79 ± 18 µM.
The corresponding values for “RRASVA [III, RRASVA analog with one N^β-Me-aza-β^3-amino acid residue; likely Ala at position -1]” are 5.5 ± 0.3 μmole mg^-1 s^-1, 0.034 ± 0.005 L mg^-1 s^-1 and 91 ± 15 µM.
The matching figures for “RRASVA [IV, RRASVA analog with one N^β-Me-aza-β^3-amino acid residue; likely Val]”: 16 ± 2.0 μmole mg^-1 s^-1, 0.12 ± 0.02 L mg^-1 s^-1 and 118 ± 36 µM.
“RRASVA [RRASVA analog with one N^β-Me-aza-β^3-amino acid residue; likely the C-terminal Ala]”: at PKA catalytic subunit [2], the “10^2 kcat” value was found to be 5.0 ± 0.4 μmole mg^-1 s^-1, the “10^2 kII (second order rate constant)” value was 0.090 ± 0.015 L mg^-1 s^-1 and the Km came to 57 ± 17 µM.
